Test results from ChEMBL document CHEMBL1201862, “PubChem BioAssay data set” (2004).
“And” between values parts separate entries of the source, which are not always exact repeats. Identical values can stand only once.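 Grown in 96-well plates, cells were treated for 48 hours with each compound at five concentrations. Insufficient inhibition: endpoint recorded as highest concentration tested. GI50 marks 50% less growth.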 The source made the active and inactive calls. No stated cut-off is given here; in the data, active = GI50 up to about 1.1 µM and inactive = higher.

Columns and labels:
Experiment in all cases: DTP human tumour cell line panel, 48 h
SF-268 = tested on: SF-268
M14 = tested on: M14
SF-539 = tested on: SF-539
SK-OV-3 = tested on: SK-OV-3
SK-MEL-5 = tested on: SK-MEL-5
Malme-3M = tested on: Malme-3M
SNB-19 = tested on: SNB-19
SK-MEL-2 = tested on: SK-MEL-2
UO-31 = tested on: UO-31
HOP-92 = tested on: HOP-92
U-251 = tested on: U-251
SR = tested on: SR
M19-MEL = tested on: M19-MEL
SN12C = tested on: SN12C
NCI-H460 = tested on: NCI-H460
SK-MEL-28 = tested on: SK-MEL-28
HCT-116 = tested on: HCT-116
K562 = tested on: K562
DMS-273 = tested on: DMS-273
HL-60 = tested on: HL-60
UACC-257 = tested on: UACC-257
SNB-75 = tested on: SNB-75
RPMI-8226 = tested on: RPMI-8226
UACC-62 = tested on: UACC-62
EKVX = tested on: EKVX
CCRF-CEM = tested on: CCRF-CEM
ACHN = tested on: ACHN
SF-295 = tested on: SF-295
OVCAR-5 = tested on: OVCAR-5
MDA-MB-231 = tested on: MDA-MB-231
PC-3 = tested on: PC-3
OVCAR-3 = tested on: OVCAR-3
HCT-15 = tested on: HCT-15
SW-620 = tested on: SW-620
HT-29 = tested on: HT-29
MDA-MB-435 = tested on: MDA-MB-435
NCI-H23 = tested on: NCI-H23
DU-145 = tested on: DU-145
COLO 205 = tested on: COLO 205
MDA-N = tested on: MDA-N
OVCAR-4 = tested on: OVCAR-4
T47D = tested on: T47D
MOLT-4 = tested on: MOLT-4
TK-10 = tested on: TK-10
RXF 393 = tested on: RXF 393
Hs-578T = tested on: Hs-578T
KM12 = tested on: KM12
NCI-H226 = tested on: NCI-H226
CAKI-1 = tested on: CAKI-1
IGROV-1 = tested on: IGROV-1
HCC 2998 = tested on: HCC 2998
LOX IMVI = tested on: LOX IMVI
HOP-62 = tested on: HOP-62
NCI-H522 = tested on: NCI-H522
BT-549 = tested on: BT-549
NCI/ADR-RES = tested on: NCI/ADR-RES
OVCAR-8 = tested on: OVCAR-8
A549 = tested on: A549
A498 = tested on: A498
MCF7 = tested on: MCF7
786-0 = tested on: 786-0

SMILES: C/C=C/C=C/CCCCCCCCCCCCC[C@]1(OC)C=C[C@@H](CC(=O)OC)OO1 [XESTIN A]
- GI50 (SF-268): 17.3 µM (inactive) and 21.7 µM (inactive)
- GI50 (M14): 14.8 µM (inactive) and 17 µM (inactive)
- GI50 (SF-539): 15.2 µM (inactive) and 19.7 µM (inactive)
- GI50 (SK-OV-3): 28.6 µM (inactive) and 19.5 µM (inactive)
- GI50 (SK-MEL-5): 15.6 µM (inactive) and 10.1 µM (inactive)
- GI50 (Malme-3M): 26.7 µM (inactive) and 21.4 µM (inactive)
- GI50 (SNB-19): 17.8 µM (inactive)
- GI50 (SK-MEL-2): 15.5 µM (inactive) and 25.5 µM (inactive)
- GI50 (UO-31): 2.77 µM (inactive)
- GI50 (HOP-92): 1.88 µM (inactive)
- GI50 (U-251): 14.7 µM (inactive) and > 10 µM (inactive)
- GI50 (SR): 2.36 µM (inactive)
- GI50 (M19-MEL): 16.9 µM (inactive) and 11 µM (inactive)
- GI50 (SN12C): 12.9 µM (inactive) and 21.6 µM (inactive)
- GI50 (NCI-H460): 22.4 µM (inactive) and 15.1 µM (inactive)
- GI50 (SK-MEL-28): 15.3 µM (inactive) and 17.5 µM (inactive)
- GI50 (HCT-116): 16.1 µM (inactive) and 10.1 µM (inactive)
- GI50 (K562): 12.2 µM (inactive) and 20.5 µM (inactive)
- GI50 (DMS-273): 1.57 µM (inactive)
- GI50 (HL-60): 3.59 µM (inactive)
- GI50 (UACC-257): 20.2 µM (inactive) and 17.4 µM (inactive)
- GI50 (SNB-75): 17.4 µM (inactive) and 9.64 µM (inactive)
- GI50 (RPMI-8226): 7.45 µM (inactive) and 13.5 µM (inactive)
- GI50 (UACC-62): 14.1 µM (inactive) and 15.3 µM (inactive)

SMILES: COc1cc2c(c(OC)c1OC)C(=O)[C@@H]1[C@H]2N1C(=O)NCCCl
- GI50 (SF-268): 76.9 µM (inactive)
- GI50 (EKVX): 53 µM (inactive)
- GI50 (CCRF-CEM): 30.1 µM (inactive)
- GI50 (M14): 50.4 µM (inactive)
- GI50 (ACHN): 50.5 µM (inactive)
- GI50 (SF-539): 72.4 µM (inactive)
- GI50 (SK-OV-3): > 100 µM (inactive)
- GI50 (SF-295): > 100 µM (inactive)
- GI50 (OVCAR-5): > 100 µM (inactive)
- GI50 (MDA-MB-231): > 100 µM (inactive)
- GI50 (SK-MEL-5): 46.8 µM (inactive)
- GI50 (PC-3): 58.2 µM (inactive)
- GI50 (Malme-3M): 64.7 µM (inactive)
- GI50 (OVCAR-3): 38.4 µM (inactive)
- GI50 (HCT-15): 36.1 µM
- GI50 (SW-620): > 100 µM (inactive)
- GI50 (HT-29): 36 µM (inactive)
- GI50 (MDA-MB-435): 32.6 µM (inactive)
- GI50 (SNB-19): > 100 µM (inactive)
- GI50 (SK-MEL-2): > 100 µM (inactive)
- GI50 (NCI-H23): 43.4 µM (inactive)
- GI50 (UO-31): 73.5 µM (inactive)
- GI50 (HOP-92): > 100 µM (inactive)
- GI50 (DU-145): 66.8 µM (inactive)
- GI50 (U-251): 37.1 µM (inactive)
- GI50 (COLO 205): 27 µM (inactive)
- GI50 (SR): 46.2 µM (inactive)
- GI50 (MDA-N): 32.4 µM (inactive)
- GI50 (OVCAR-4): 52.4 µM (inactive)
- GI50 (T47D): 48.3 µM (inactive)
- GI50 (SN12C): 54.7 µM (inactive)
- GI50 (MOLT-4): 50.7 µM (inactive)
- GI50 (TK-10): > 100 µM (inactive)
- GI50 (RXF 393): 53.3 µM (inactive)
- GI50 (Hs-578T): 61.2 µM (inactive)
- GI50 (KM12): 53.3 µM (inactive)
- GI50 (NCI-H226): 64 µM (inactive)
- GI50 (CAKI-1): 56.8 µM (inactive)
- GI50 (IGROV-1): 33.5 µM (inactive)
- GI50 (NCI-H460): 40.6 µM (inactive)
- GI50 (SK-MEL-28): > 100 µM (inactive)
- GI50 (HCC 2998): > 100 µM (inactive)
- GI50 (HCT-116): 41.7 µM (inactive)
- GI50 (K562): 45.8 µM (inactive)
- GI50 (LOX IMVI): 39.3 µM (inactive)
- GI50 (HL-60): 29.2 µM (inactive)
- GI50 (HOP-62): > 100 µM (inactive)
- GI50 (UACC-257): 79.8 µM (inactive)
- GI50 (SNB-75): 40.9 µM (inactive)
- GI50 (NCI-H522): 49.2 µM (inactive)
- GI50 (BT-549): 80.5 µM (inactive)
- GI50 (NCI/ADR-RES): > 100 µM (inactive)
- GI50 (OVCAR-8): 79.4 µM (inactive)
- GI50 (A549): 58.2 µM (inactive)
- GI50 (RPMI-8226): 70 µM (inactive)
- GI50 (A498): 70.1 µM (inactive)
- GI50 (MCF7): 27.6 µM (inactive)
- GI50 (786-0): > 100 µM (inactive)
- GI50 (UACC-62): 61.4 µM (inactive)

SMILES: COc1ccc(CNC(=O)[C@H](Cc2ccc(O)cn2)NC(C)=O)cc1OC
- GI50 (SF-268): > 90.6 µM (inactive)
- GI50 (EKVX): > 100 µM (inactive)
- GI50 (CCRF-CEM): > 100 µM (inactive)
- GI50 (M14): > 100 µM (inactive)
- GI50 (ACHN): > 100 µM (inactive)
- GI50 (SF-539): > 100 µM (inactive)
- GI50 (SK-OV-3): > 100 µM (inactive)
- GI50 (SF-295): > 100 µM (inactive)
- GI50 (OVCAR-5): > 100 µM (inactive)
- GI50 (MDA-MB-231): > 100 µM (inactive)
- GI50 (SK-MEL-5): > 100 µM (inactive)
- GI50 (PC-3): > 100 µM (inactive)
- GI50 (Malme-3M): > 100 µM (inactive)
- GI50 (OVCAR-3): > 100 µM (inactive)
- GI50 (HCT-15): > 100 µM
- GI50 (SW-620): > 100 µM (inactive)
- GI50 (HT-29): > 100 µM (inactive)
- GI50 (MDA-MB-435): > 100 µM (inactive)
- GI50 (SNB-19): > 100 µM (inactive)
- GI50 (SK-MEL-2): > 100 µM (inactive)
- GI50 (NCI-H23): > 100 µM (inactive)
- GI50 (UO-31): > 100 µM (inactive)
- GI50 (HOP-92): > 100 µM (inactive)
- GI50 (DU-145): > 100 µM (inactive)
- GI50 (U-251): > 100 µM (inactive)
- GI50 (COLO 205): > 100 µM (inactive)
- GI50 (SR): > 100 µM (inactive)
- GI50 (MDA-N): > 100 µM (inactive)
- GI50 (OVCAR-4): > 100 µM (inactive)
- GI50 (T47D): > 100 µM (inactive)
- GI50 (SN12C): > 100 µM (inactive)
- GI50 (MOLT-4): > 96.8 µM (inactive)
- GI50 (TK-10): > 100 µM (inactive)
- GI50 (RXF 393): > 100 µM (inactive)
- GI50 (Hs-578T): > 74.5 µM (inactive)
- GI50 (KM12): > 100 µM (inactive)
- GI50 (NCI-H226): > 100 µM (inactive)
- GI50 (CAKI-1): > 100 µM (inactive)
- GI50 (IGROV-1): > 100 µM (inactive)
- GI50 (NCI-H460): > 100 µM (inactive)
- GI50 (SK-MEL-28): > 100 µM (inactive)
- GI50 (HCC 2998): > 100 µM (inactive)
- GI50 (HCT-116): > 100 µM (inactive)
- GI50 (K562): > 100 µM (inactive)
- GI50 (LOX IMVI): > 100 µM (inactive)
- GI50 (HL-60): > 100 µM (inactive)
- GI50 (HOP-62): > 100 µM (inactive)
- GI50 (UACC-257): > 100 µM (inactive)
- GI50 (SNB-75): > 100 µM (inactive)
- GI50 (NCI-H522): > 93.5 µM (inactive)
- GI50 (BT-549): > 100 µM (inactive)
- GI50 (NCI/ADR-RES): > 100 µM (inactive)
- GI50 (OVCAR-8): > 100 µM (inactive)
- GI50 (A549): > 100 µM (inactive)
- GI50 (RPMI-8226): > 100 µM (inactive)
- GI50 (A498): > 100 µM (inactive)
- GI50 (MCF7): > 100 µM (inactive)
- GI50 (786-0): > 100 µM (inactive)
- GI50 (UACC-62): > 100 µM (inactive)
